Laboratory results taken from US20220033397A1, “PHARMACEUTICAL COMPOUNDS AND THEIR USE AS INHIBITORS OF UBIQUITIN SPECIFIC PROTEASE 19 (USP19)” (ALMAC DISCOVERY LIMITED, priority 2018, published 2022).

biological target: T1, Full-length USP19 (Homo sapiens, UniProt O94966); test: USP19 fluorescence polarisation (FP) homogeneous assay with Ubiquitin-Lys-TAMRA substrate; assay type: biochemical; conditions: 2.5 nM USP19, 30 min pre-incubation, average of at least two duplicate experiments
T1 construct: Full-length USP19 was purchased from Boston Biochem (E-576); purchased Boston Biochem E-576
T1 sequence (O94966 1-1318): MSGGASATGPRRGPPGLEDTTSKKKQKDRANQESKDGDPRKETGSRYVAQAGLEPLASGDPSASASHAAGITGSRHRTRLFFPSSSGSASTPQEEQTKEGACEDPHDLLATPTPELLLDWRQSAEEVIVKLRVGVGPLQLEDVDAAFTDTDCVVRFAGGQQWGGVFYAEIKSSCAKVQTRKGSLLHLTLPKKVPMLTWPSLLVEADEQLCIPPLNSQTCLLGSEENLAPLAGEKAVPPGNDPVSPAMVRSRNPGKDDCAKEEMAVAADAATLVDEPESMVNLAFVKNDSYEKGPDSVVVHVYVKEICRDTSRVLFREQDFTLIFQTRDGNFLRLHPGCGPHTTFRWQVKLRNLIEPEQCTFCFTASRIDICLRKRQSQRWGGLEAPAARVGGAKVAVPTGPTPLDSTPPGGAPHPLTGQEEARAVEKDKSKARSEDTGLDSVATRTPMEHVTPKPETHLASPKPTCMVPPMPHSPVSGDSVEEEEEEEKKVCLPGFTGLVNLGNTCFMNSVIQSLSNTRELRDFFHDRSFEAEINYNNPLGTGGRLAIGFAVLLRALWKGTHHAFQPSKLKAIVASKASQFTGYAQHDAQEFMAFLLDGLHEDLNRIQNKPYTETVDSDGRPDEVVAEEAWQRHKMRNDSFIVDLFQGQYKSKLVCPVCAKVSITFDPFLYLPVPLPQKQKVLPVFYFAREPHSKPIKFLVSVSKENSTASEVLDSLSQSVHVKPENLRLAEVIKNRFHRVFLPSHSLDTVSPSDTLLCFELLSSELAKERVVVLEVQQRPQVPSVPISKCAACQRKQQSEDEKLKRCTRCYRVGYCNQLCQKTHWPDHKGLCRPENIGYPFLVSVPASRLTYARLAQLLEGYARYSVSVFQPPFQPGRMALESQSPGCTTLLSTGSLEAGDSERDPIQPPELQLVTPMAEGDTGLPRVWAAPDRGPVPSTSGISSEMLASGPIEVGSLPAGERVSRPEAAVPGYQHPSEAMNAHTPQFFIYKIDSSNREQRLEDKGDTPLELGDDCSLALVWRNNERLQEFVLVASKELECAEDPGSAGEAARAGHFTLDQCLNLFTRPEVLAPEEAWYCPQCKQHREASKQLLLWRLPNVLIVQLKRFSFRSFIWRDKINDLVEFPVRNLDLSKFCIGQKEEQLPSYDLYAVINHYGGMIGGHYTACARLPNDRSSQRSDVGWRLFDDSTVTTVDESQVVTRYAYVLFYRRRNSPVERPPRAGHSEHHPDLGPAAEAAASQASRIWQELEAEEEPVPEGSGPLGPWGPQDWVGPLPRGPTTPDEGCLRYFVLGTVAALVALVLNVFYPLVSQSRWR
Procedure, shortened: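 Full-length USP19 preincubated 30 min at RT with inhibitor (200 μM to 2 μM series, 8–18 points) before adding 500 nM Ubiquitin-Lys-TAMRA substrate.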

| SMILES | IC50 |
| --- | --- |
| C[C@H](CC1CCCCC1)C(=O)N1CCC(O)(Cn2ccc3occc3c2=O)C2(CCCC2)C1 (stereo partly drawn) [Example 138, 5-((7-((R)-3-Cyclohexyl-2-methylpropanoyl)-10-hydroxy-7-azaspiro[4.5]decan-10-yl)methyl)furo[3,2-c]pyridin-4(5H)-one] | 5 to 50 µM |
| COc1cc2ccn(CC3(O)CCN(C(=O)[C@H](C)CC(F)(F)F)CC34CCCC4)c(=O)c2cc1OC (stereo partly drawn) [Example 140, 2-((10-Hydroxy-7-((R)-4,4,4-trifluoro-2-methylbutanoyl)-7-azaspiro[4.5]decan-10-yl)methyl)-6,7-dimethoxyisoquinolin-1(2H)-one] | 50 to 250 µM |
| CCn1ncc2c(=O)n(CC3(O)CCN(C(=O)[C@H](C)CC(F)(F)F)CC34CCCC4)cnc21 (stereo partly drawn) [Example 141, 1-Ethyl-5-((10-hydroxy-7-((R)-4,4,4-trifluroo-2-methylbutanoyl)-7-azaspiro[4.5]decan-10-yl)methyl)-1,5-dihydro-4H-pyrazolo[3,4-d]pyrimidin-4-one] | 5 to 50 µM |
| C[C@H](CC1CCCCC1)C(=O)N1CCC(O)(Cn2ccc3sccc3c2=O)C2(CCCC2)C1 (stereo partly drawn) [Example 142, 5-((7-((R)-3-Cyclohexyl-2-methylpropanoyl)-10-hydroxy-7-azaspiro[4.5]decan-10-yl)methyl)thieno[3,2-c]pyridin-4(5H)-one] | 5 to 50 µM |
| C[C@H](CC(F)(F)F)C(=O)N1CCC(O)(Cn2cnc3ccc(F)cc3c2=O)C2(CCCC2)C1 (stereo partly drawn) [Example 148, 6-Fluoro-3-((10-hydroxy-7-((R)-4,4,4-trifluoro-2-methylbutanoyl)-7-azaspiro[4.5]decan-10-yl)methyl)quinazolin-4(3H)-one] | 5 to 50 µM |
| C[C@H](CC(F)(F)F)C(=O)N1CCC(O)(Cn2cnc3cc(F)c(Cl)cc3c2=O)C2(CCCC2)C1 (stereo partly drawn) [Example 149, 6-Chloro-7-fluoro-3-((10-hydroxy-7-((R)-4,4,4-trifluoro-2-methylbutanoyl)-7-azaspiro[4.5]decan-10-yl)methyl)quinazolin-4(3H)-one] | 5 to 50 µM |
| C[C@H](CC1CCCCC1)C(=O)N1CCC(O)(Cn2ccc3nccnc3c2=O)C2(CCCC2)C1 (stereo partly drawn) [Example 150, 6-((7-((R)-3-Cyclohexyl-2-methylpropanoyl)-10-hydroxy-7-azaspiro[4.5]decan-10-yl)methyl)pyrido[3,4-b]pyrazin-5(6H)-one] | 50 to 250 µM |
| CCn1cc2c(=O)n(CC3(O)CCN(C(=O)[C@H](C)CC4CCCCC4)CC34CCCC4)cnc2n1 (stereo partly drawn) [Example 152, 5-((7-((R)-3-Cyclohexyl-2-methylpropanoyl)-10-hydroxy-7-azaspiro[4.5]decan-10-yl)methyl)-2-ethyl-2,5-dihydro-4H-pyrazolo[3,4-d]pyrimidin-4-one] | 50 to 250 µM |
| C[C@H](CC(F)(F)F)C(=O)N1CCC(O)(Cn2cnc3cc(F)ccc3c2=O)C2(CCCC2)C1 (stereo partly drawn) [Example 156, 7-Fluoro-3-((10-hydroxy-7-((R)-4,4,4-trifluoro-2-methylbutanoyl)-7-azaspiro[4.5]decan-10-yl)methyl)quinazolin-4(3H)-one] | 5 to 50 µM |
| C[C@H](CC1CCCCC1)C(=O)N1CCC(O)(Cn2ccc3ncncc3c2=O)C2(CCCC2)C1 (stereo partly drawn) [Example 158, 6-((7-((R)-3-Cyclohexyl-2-methylpropanoyl)-10-hydroxy-7-azaspiro[4.5]decan-10-yl)methyl)pyrido[4,3-d]pyrimidin-5(6H)-one] | 0.5 to 5 µM |
| C[C@H](CC(F)(F)F)C(=O)N1CCC(O)(Cn2ccc3ncncc3c2=O)C2(CCCC2)C1 (stereo partly drawn) [Example 159, 6-((10-Hydroxy-7-((R)-4,4,4-trifluoro-2-methylbutanoyl)-7-azaspiro[4.5]decan-10-yl)methyl)pyrido[4,3-d]pyrimidin-5(6H)-one] | 5 to 50 µM |

More lines, now with the values ahead:

| IC50 | SMILES |
| --- | --- |
| < 0.5 µM | C[C@H](CC1CCCCC1)C(=O)N1CCC(O)(Cn2ccc3ccncc3c2=O)C2(CCCC2)C1 (stereo partly drawn) [Example 137, 2-((7-((R)-3-Cyclohexyl-2-methylpropanoyl)-10-hydroxy-7-azaspiro[4.5]decan-10-yl)methyl)-2,7-naphthyridin-1(2H)-one] |
| 0.5 to 5 µM | COc1ccc2c(=O)n(CC3(O)CCN(C(=O)[C@H](C)CC4CCCCC4)CC34CCCC4)cnc2c1 (stereo partly drawn) [Example 139, 3-((7-((R)-3-Cyclohexyl-2-methylpropanoyl)-10-hydroxy-7-azaspiro[4.5]decan-10-yl)methyl)-7-methoxyquinazolin-4(3H)-one] |
| < 0.5 µM | C[C@H](CC1CCCCC1)C(=O)N1CCC(O)(Cn2cnc3ccc(Cl)cc3c2=O)C2(CCCC2)C1 (stereo partly drawn) [Example 143, 6-Chloro-3-((7-((R)-3-cyclohexyl-2-methylpropanoyl)-10-hydroxy-7-azaspiro[4.5]decan-10-yl)methyl)quinazolin-4(3H)-one] |
| 0.5 to 5 µM | C[C@H](CC1CCCCC1)C(=O)N1CCC(O)(Cn2cnc3ccsc3c2=O)C2(CCCC2)C1 (stereo partly drawn) [Example 144, 3-((7-((R)-3-Cyclohexyl-2-methylpropanoyl)-10-hydroxy-7-azaspiro[4.5]decan-10-yl)methyl)thieno[3,2-d]pyrimidin-4(3H)-one] |
| 0.5 to 5 µM | C[C@H](CC1CCCCC1)C(=O)N1CCC(O)(Cn2cc(C(=O)N(C)C)c3ccccc3c2=O)C2(CCCC2)C1 (stereo partly drawn) [Example 145, 2-((7-((R)-3-Cyclohexyl-2-methylpropanoyl)-10-hydroxy-7-azaspiro[4.5]decan-10-yl)methyl)-N,N-dimethyl-1-oxo-1,2-dihydroisoquinoline-4-carboxamide] |
| 0.5 to 5 µM | COc1cc2ccn(CC3(O)CCN(C(=O)[C@H](C)CC4CCCCC4)CC34CCCC4)c(=O)c2cc1OC (stereo partly drawn) [Example 146, 2-((7-((R)-3-Cyclohexyl-2-methylpropanoyl)-10-hydroxy-7-azaspiro[4.5]decan-10-yl)methyl)-6,7-dimethoxyisoquinolin-1(2H)-one] |
| 0.5 to 5 µM | C[C@H](CC(F)(F)F)C(=O)N1CCC(O)(Cn2cnc3ccc(Cl)cc3c2=O)C2(CCCC2)C1 (stereo partly drawn) [Example 147, 6-Chloro-3-((10-hydroxy-7-((R)-4,4,4-trifluoro-2-methylbutanoyl)-7-azaspiro[4.5]decan-10-yl)methyl)quinazolin-4(3H)-one] |
| < 0.5 µM | C[C@H](CC1CCCCC1)C(=O)N1CCC(O)(Cn2cnc3cc(F)c(F)cc3c2=O)C2(CCCC2)C1 (stereo partly drawn) [Example 151, 3-((7-((R)-3-Cyclohexyl-2-methylpropanoyl)-10-hydroxy-7-azaspiro[4.5]decan-10-yl)methyl)-6,7-difluoroquinazolin-4(3H)-one] |
| 0.5 to 5 µM | Cc1nc2cnccc2c(=O)n1CC1(O)CCN(C(=O)[C@H](C)CC2CCCCC2)CC12CCCC2 (stereo partly drawn) [Example 153, 3-((7-((R)-3-Cyclohexyl-2-methylpropanoyl)-10-hydroxy-7-azaspiro[4.5]decan-10-yl)methyl)-2-methylpyrido[3,4-d]pyrimidin-4(3H)-one] |
| < 0.5 µM | C[C@H](CC1CCCCC1)C(=O)N1CCC(O)(Cn2cnc3ccc(F)cc3c2=O)C2(CCCC2)C1 (stereo partly drawn) [Example 154, 3-((7-((R)-3-Cyclohexyl-2-methylpropanoyl)-10-hydroxy-7-azaspiro[4.5]decan-10-yl)methyl)-6-fluoroquinazolin-4(3H)-one] |
| < 0.5 µM | C[C@H](CC1CCCCC1)C(=O)N1CCC(O)(Cn2cnc3cc(F)c(Cl)cc3c2=O)C2(CCCC2)C1 (stereo partly drawn) [Example 155, 6-Chloro-3-((7-((R)-3-cyclohexyl-2-methylpropanoyl)-10-hydroxy-7-azaspiro[4.5]decan-10-yl)methyl)-7-fluoroquinazolin-4(3H)-one] |
| 0.5 to 5 µM | C[C@H](CC1CCCCC1)C(=O)N1CCC(O)(Cn2cnc3ccncc3c2=O)C2(CCCC2)C1 (stereo partly drawn) [Example 157, 3-((7-((R)-3-Cyclohexyl-2-methylpropanoyl)-10-hydroxy-7-azaspiro[4.5]decan-10-yl)methyl)pyrido[4,3-d]pyrimidin-4(3H)-one] |
| < 0.5 µM | CSc1ncc2c(=O)n(CC3(O)CCN(C(=O)[C@H](C)CC4CCCCC4)CC34CCCC4)cnc2n1 (stereo partly drawn) [Example 160, 3-((7-((R)-3-Cyclohexyl-2-methylpropanoyl)-10-hydroxy-7-azaspiro[4.5]decan-10-yl)methyl)-7-(methylthio)pyrimido[4,5-d]pyrimidin-4(3H)-one] |
